Assays:
[1] = tested on: Pisum sativum L. cv. Carneval; assay: Growth chamber pea study: one 4-ME-IAA spray, heat-stressed and non-stressed plants (Tables 1, 2); format: in vivo; set-up: more pods per plant with mature seeds than control / increase in number of seeds per plant vs control / increase in total seed weight per plant vs control: tested at 1 µM
From the text: ‘Carneval’ (Pisum sativum L.) was chosen as a model cultivar as a semi-dwarf (semi-leafless; an field pea which is used extensively in crop agriculture. ‘Carneval’ has white flowers and yellow cotyledons at maturity, begins to flower at about the 15 to 17th node under long day conditions. Seeds of ‘Carneval’ were planted at an approximate depth of 2.5 cm in 3-L plastic pots (4 seeds per pot and thinned to 2 plants per pot after approximately 2 weeks) in 1:1 Sunshine #4 potting mix (Sun Gro Horticulture, Vancouver, Canada) and sand. Approximately 15 cc of slow-release fertilizer (14-14-14) was added to the potting mix at planting. The experiment was arranged in a completely randomized design and grown at the University of Alberta in a growth chamber set at 19° C./17° C. (day/night) with a 16/8-h photoperiod under cool-white fluorescent lights (F54/15/835/HO high fluorescent bulbs, Phillips, Holland; 350 μE m^2 s^−2, measured with a LI-188 photometer, Li-Cor Biosciences, Lincoln, Nebr.). For the heat stress treatment, plants were placed in a separate growth chamber with a 16/8-h photoperiod under cool-white fluorescent lights (F54/15/835/HO high fluorescent bulbs, Phillips, Holland) for 4 days where the temperature was cycled over a 24 hr period as follows: 34° C. air temperature for 6 hours per day (between 11:00 and 17:00 hrs) for 4 days during the light cycle; the remainder of the light cycle was maintained at a 22° C. air temperature; the dark cycle was maintained at 19° C. After the 4 day heat treatment, the plants were returned to the same growth chamber they were originally grown in, where they were taken to maturity. One application of 4-ME-IAA (1 μM in 0.1% Tween 80) or 0.1% Tween 80 (control) was applied as a spray to the entire plant to cover when the first flowering node of the main stem was at the flower bud or full bloom stage. For the heat stress treatment, the hormone or control application was completed 16 hrs prior to the initiation of the first heat-stress cycle.

[2] = tested on: 'Harvest HRS'-Spring hard-red wheat; assay: Wheat growth chamber experiment, with or without heat stress (Tables W2, W3); format: in vivo, Triticum aestivum
Experimental: In another experiment, seeds of the wheat cultivar Harvest HRS were planted at an approximate depth of 1.5 cm in 5 inch square plastic pots (6 inch pot depth; 3 seeds per pot) in 1:1 Sunshine #4 potting mix (Sun Gro Horticulture, Vancouver, Canada) and sand. The seedlings were thinned to one seedling per pot approximately 2 weeks after seeding. Plants were grown in a Conviron growth chamber maintained at 24° C. light/20° C. dark (16 hours light/8 hours dark photoperiod; using 54W/835/HO high fluorescent bulbs [Phillips, Holland] with an average photon flux density of 540 μE m^−2s^−2. Plant were fertilized with 175 ppm 20-20-20 (N:P:K) every 3 to 4 days.
Aqueous solutions of 4-ME-IAA at 1×10^−6, 1×10^−5, or 1×10^−4 M in 0.1% (v/v) Tween 80 or a control solution (0.1% [v/v] Tween 80) were applied (sprayed on plant to cover) when the majority of the plants were at the BBCH scale 45 developmental stage (late boot stage where the flag leaf sheath [boot] is swollen with the inflorescence, but the inflorescence has not emerged from the boot). The experiment was arranged in a completely randomized design within the growth chamber.
The heat stress treatment was imposed by moving plants to receive the heat stress to a different growth chamber ((heat stress chamber) for 6 days. In the heat stress chamber, the light cycle began at 7:00 hours at a 24° C. air temperature. The heat treatment began at 11:00 hours (33° C. air temperature) and was maintained for 6 hours (until 17:00 hours). Following the heat treatment, the remainder of the light cycle was maintained at a 24° C. air temperature. The dark cycle (began at 23:00 hours) was maintained at 20° C. The photoperiod was 16 h light/8 h dark at an average photon flux density of 492 μE m^−2s^−2 using 54W/835/HO high fluorescent bulbs (Phillips, Holland). After 6 days, the heat stress-treated plants were returned to the original growth chamber maintained at non-heat stress conditions to develop to maturity.

[3] = 1 μM, non-heat stressed, at plant maturity
[4] = non-stressed, at plant maturity
[5] = 1×10^−4 M, 6 days of heat stress (33° C. 6 h/day)
[6] = 1×10^−5 M, 6 days of heat stress (33° C. 6 h/day)
[7] = 1×10^−6 M, 6 days of heat stress (33° C. 6 h/day)

Cc1cccc2[nH]cc(CC(=O)O)c12 [4-ME-IAA, 4-methyl-indole-3-acetic acid]
plant maturation (dry-down), FIG. 3 ([1]; 1 μM in 0.1% Tween 80, 34 days after spray): stimulated maturation of the plant
Number of pods per plant [1, 3]: 14.9 ± 0.6
Number of seeds per plant [1, 3]: 57.6 ± 3.5
Number of stems/stems with pods per plant [1, 3]: 1.1 ± 0.1
Total seed weight per plant [1, 3]: 13.56 ± 0.64 g
Weight per seed [1, 3]: 0.24 ± 0.01 g
Number of pods with developing seeds per plant ([1]; Heat-stressed (34° C. 6 h/day, 4 days), 1 μM in 0.1% Tween 80, 16 hr before heat, 9 to 10 days after removal from heat treatment): 10.6 ± 0.8
Number of pods with developing seeds per plant ([1]; Non-stressed (19° C./17° C.), 1 μM in 0.1% Tween 80, 9 to 10 days): 15.4 ± 0.6
increase in pod retention vs control ([1]; heat-stress conditions, 9-10 days after application): 112%
pod retention, FIG. 2 ([1]; non-stressed and heat-stress conditions, 9-10 days after application): increased pod retention
increase in pod retention vs control ([1]; non-stressed conditions, 9-10 days after application): 41%
Weight per seed [1, 4]: 240 mg per seed
increase in number of seeds per plant vs control [1, 4]: 39%
increase in total seed weight per plant vs control [1, 4]: 23%
more pods per plant with mature seeds than control [1, 4]: 42%
Length of spike peduncle [2, 5]: 70 ± 10 mm
Number of spikes per plant [2, 5]: 25 ± 3
Seed number per plant [2, 5]: 130 ± 23
Seed number per spike [2, 5]: 5 ± 1
Seed weight per plant [2, 5]: 4.08 ± 0.67 g
increase in seed number per plant vs control ([2]; 1×10^−4 M, heat stress): 73%
increase in seed weight per plant vs control ([2]; 1×10^−4 M, heat stress): 72%
Length of spike peduncle ([2]; 1×10^−4 M, non-heat stress): 62 ± 5 mm
Number of spikes per plant ([2]; 1×10^−4 M, non-heat stress): 25 ± 1
Seed number per plant ([2]; 1×10^−4 M, non-heat stress): 163 ± 32
Seed number per spike ([2]; 1×10^−4 M, non-heat stress): 7 ± 1
Seed weight per plant ([2]; 1×10^−4 M, non-heat stress): 4.87 ± 0.95 g
Length of spike peduncle [2, 6]: 57 ± 5 mm
Number of spikes per plant [2, 6]: 24 ± 4
Seed number per plant [2, 6]: 57 ± 18
Seed number per spike [2, 6]: 3 ± 1
Seed weight per plant [2, 6]: 1.83 ± 0.57 g
Length of spike peduncle ([2]; 1×10^−5 M, non-heat stress): 82 ± 7 mm
Number of spikes per plant ([2]; 1×10^−5 M, non-heat stress): 22 ± 3
Seed number per plant ([2]; 1×10^−5 M, non-heat stress): 256 ± 42
Seed number per spike ([2]; 1×10^−5 M, non-heat stress): 12 ± 1
Seed weight per plant ([2]; 1×10^−5 M, non-heat stress): 7.56 ± 1.36 g
Length of spike peduncle [2, 7]: 72 ± 7 mm
Number of spikes per plant [2, 7]: 28 ± 3
Seed number per plant [2, 7]: 151 ± 43
Seed number per spike [2, 7]: 5 ± 1
Seed weight per plant [2, 7]: 4.49 ± 1.25 g
increase in number of floral spikes per plant vs control ([2]; 1×10^−6 M, heat stress): 40%
increase in seed number per plant vs control ([2]; 1×10^−6 M, heat stress): 101%
increase in seed weight per plant vs control ([2]; 1×10^−6 M, heat stress): 90%
Length of spike peduncle ([2]; 1×10^−6 M, non-heat stress): 63 ± 6 mm
Number of spikes per plant ([2]; 1×10^−6 M, non-heat stress): 24 ± 3
Seed number per plant ([2]; 1×10^−6 M, non-heat stress): 254 ± 81
Seed number per spike ([2]; 1×10^−6 M, non-heat stress): 10 ± 2
Seed weight per plant ([2]; 1×10^−6 M, non-heat stress): 8.17 ± 2.66 g

From US20140106967A1, “AUXIN PLANT GROWTH REGULATORS” (The Governors of The University of Alberta, priority 2011, published 2014)
